Source: PMC6476959, “Novel 3,4-Dihydroisocoumarins Inhibit Human P-gp and BCRP in Multidrug Resistant Tumors and Demonstrate Substrate Inhibition of Yeast Pdr5” (Frontiers in Pharmacology, 2019)

Assays:
A549 cells = experiment: CellTiter-Glo cell viability assay (cytotoxicity), A549; format: cell-based, human; conditions: for IC50: Homo sapiens, A549, 48 h, mean ± SEM
Description: (§1) The human lung adenocarcinoma cell line A549 was cultured in DMEM medium supplemented with 10% fetal bovine serum (FBS), 100 U/mL penicillin and 100 μg/mL streptomycin. P-gp-expressing human colon adenocarcinoma cells HCT-15 were cultured in RPMI 1640 medium supplemented with 10% FBS, 100 U/mL penicillin and 100 μg/mL streptomycin. BCRP-expressing MCF-7/MX human breast adenocarcinoma cells were cultured in DMEM medium supplemented with 10% FBS, 100 U/mL penicillin and 100 μg/mL streptomycin. MRP1-expressing H69AR human small cell lung cancer cells were cultured in RPMI 1640 medium (ATCC modification) supplemented with 20% FBS, 100 U/mL penicillin and 100 μg/mL streptomycin. All cancer cell lines employed have been systematically characterized regarding their respective ABC transporter expression profile ([Sachs et al., 2019]).
(§2) Cytotoxic activity of test compounds was analyzed after 48 h using the CellTiter-Glo Luminescent Cell Viability Assay published previously ([Weber et al., 2017]) in 384-well plates with the following cell densities: A549, MCF-7/MX: 2 × 10^3 cells/well; HCT-15: 3 × 10^3 cells/well; H69AR: 5 × 10^3 cells/well. Pipetting was conducted with the CyBi-Well 96-channel simultaneous pipettor (Analytik Jena AG, Jena, Germany). For generation of dose-response curves and calculation of IC50 values, the four-parameter logistic model was applied.

HCT-15 cells = experiment: CellTiter-Glo cell viability assay (cytotoxicity), HCT-15; format: cell-based; conditions: Homo sapiens, 48 h, P-gp expressing, mean ± SEM
Description: as §1, §2

BCRP = target: T1, BCRP (Homo sapiens, UniProt Q9UNQ0); experiment: BCRP transport assay (Hoechst 33342) in MCF-7/MX cells; format: cell-based
T1 construct: endogenous in cells; host or cells: MCF-7/MX human breast adenocarcinoma cells (mitoxantrone-selected)
T1 sequence (Q9UNQ0 1-655): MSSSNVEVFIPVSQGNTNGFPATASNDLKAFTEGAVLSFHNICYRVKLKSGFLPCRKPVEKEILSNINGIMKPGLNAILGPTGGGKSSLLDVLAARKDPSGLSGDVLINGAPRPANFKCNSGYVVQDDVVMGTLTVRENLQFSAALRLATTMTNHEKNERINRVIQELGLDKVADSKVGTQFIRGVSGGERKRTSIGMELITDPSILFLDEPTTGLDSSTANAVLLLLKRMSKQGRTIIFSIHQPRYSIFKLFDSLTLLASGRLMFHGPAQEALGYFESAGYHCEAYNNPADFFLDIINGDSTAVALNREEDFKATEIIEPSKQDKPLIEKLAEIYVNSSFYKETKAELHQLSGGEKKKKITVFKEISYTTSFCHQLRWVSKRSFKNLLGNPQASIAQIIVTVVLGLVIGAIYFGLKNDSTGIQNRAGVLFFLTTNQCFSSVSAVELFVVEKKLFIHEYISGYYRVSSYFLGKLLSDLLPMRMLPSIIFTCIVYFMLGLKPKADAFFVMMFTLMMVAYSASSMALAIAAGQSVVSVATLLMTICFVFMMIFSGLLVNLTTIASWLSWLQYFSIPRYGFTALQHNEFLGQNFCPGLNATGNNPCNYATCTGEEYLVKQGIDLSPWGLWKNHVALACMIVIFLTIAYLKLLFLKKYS
Description: Breast cancer resistance protein transport activity was determined in the BCRP-expressing MCF-7/MX cell line. Hoechst 33342 was applied as transporter substrate and 1 μM Ko143 as positive control or 0.5% DMSO as negative control and the assay was performed according to the P-gp assay. Fluorescence was measured at an excitation wavelength of 355 nm and emission wavelength of 460 nm. The transport activity of BCRP was analyzed by determining the plateau of the fluorescence-time curve by using non-linear regression (one-phase exponential fit). Normalization of the data to Ko143 (100% inhibition) and DMSO (0% inhibition) was performed.

P-gp = target: T2, P-gp (Homo sapiens, UniProt P08183); experiment: P-gp transport assay (calcein-AM) in HCT-15 cells; format: cell-based
T2 construct: endogenous in cells; host or cells: HCT-15 human colon adenocarcinoma cells
Description: The transport of calcein-AM by P-gp and its modulation by test compounds was analyzed in the P-gp-expressing HCT-15 cell line. 5 × 10^4 cells were seeded in black 96-well plates and incubated at 37°C and 5% CO2 for 24 h. The culture medium was removed and replaced by Hank’s balanced salt solution supplemented with 10 mM HEPES. Test compounds, 2.5 μM PSC833 (positive control) or 0.5% DMSO (negative control) were added in triplicates and incubated for 30 min at 37°C and 5% CO2. The substrate calcein-AM was added (final concentration 0.5 μM) and the fluorescence (excitation 485 nm, emission 520 nm) was measured over 3 h with the Infinite m1000 pro microplate reader (Tecan Group AG, Männedorf, Switzerland) at 37°C. The transport activity of P-gp was analyzed by determining the slope of the linear part of the fluorescence-time curve (0–30 min) using linear regression. Normalization of the data to PSC833 (100% inhibition) and DMSO (0% inhibition) was performed.

MCF-7/MX cells = experiment: CellTiter-Glo cell viability assay (cytotoxicity), MCF-7/MX; format: cell-based; conditions: Homo sapiens, MCF7/MX; 48 h, BCRP-expressing, mean ± SEM
Description: as §1, §2

H69AR cells = experiment: CellTiter-Glo cell viability assay (cytotoxicity), H69AR; format: cell-based; conditions: Homo sapiens, 48 h, MRP1-expressing, mean ± SEM
Description: as §1, §2

T2 sequence (P08183 whole entry): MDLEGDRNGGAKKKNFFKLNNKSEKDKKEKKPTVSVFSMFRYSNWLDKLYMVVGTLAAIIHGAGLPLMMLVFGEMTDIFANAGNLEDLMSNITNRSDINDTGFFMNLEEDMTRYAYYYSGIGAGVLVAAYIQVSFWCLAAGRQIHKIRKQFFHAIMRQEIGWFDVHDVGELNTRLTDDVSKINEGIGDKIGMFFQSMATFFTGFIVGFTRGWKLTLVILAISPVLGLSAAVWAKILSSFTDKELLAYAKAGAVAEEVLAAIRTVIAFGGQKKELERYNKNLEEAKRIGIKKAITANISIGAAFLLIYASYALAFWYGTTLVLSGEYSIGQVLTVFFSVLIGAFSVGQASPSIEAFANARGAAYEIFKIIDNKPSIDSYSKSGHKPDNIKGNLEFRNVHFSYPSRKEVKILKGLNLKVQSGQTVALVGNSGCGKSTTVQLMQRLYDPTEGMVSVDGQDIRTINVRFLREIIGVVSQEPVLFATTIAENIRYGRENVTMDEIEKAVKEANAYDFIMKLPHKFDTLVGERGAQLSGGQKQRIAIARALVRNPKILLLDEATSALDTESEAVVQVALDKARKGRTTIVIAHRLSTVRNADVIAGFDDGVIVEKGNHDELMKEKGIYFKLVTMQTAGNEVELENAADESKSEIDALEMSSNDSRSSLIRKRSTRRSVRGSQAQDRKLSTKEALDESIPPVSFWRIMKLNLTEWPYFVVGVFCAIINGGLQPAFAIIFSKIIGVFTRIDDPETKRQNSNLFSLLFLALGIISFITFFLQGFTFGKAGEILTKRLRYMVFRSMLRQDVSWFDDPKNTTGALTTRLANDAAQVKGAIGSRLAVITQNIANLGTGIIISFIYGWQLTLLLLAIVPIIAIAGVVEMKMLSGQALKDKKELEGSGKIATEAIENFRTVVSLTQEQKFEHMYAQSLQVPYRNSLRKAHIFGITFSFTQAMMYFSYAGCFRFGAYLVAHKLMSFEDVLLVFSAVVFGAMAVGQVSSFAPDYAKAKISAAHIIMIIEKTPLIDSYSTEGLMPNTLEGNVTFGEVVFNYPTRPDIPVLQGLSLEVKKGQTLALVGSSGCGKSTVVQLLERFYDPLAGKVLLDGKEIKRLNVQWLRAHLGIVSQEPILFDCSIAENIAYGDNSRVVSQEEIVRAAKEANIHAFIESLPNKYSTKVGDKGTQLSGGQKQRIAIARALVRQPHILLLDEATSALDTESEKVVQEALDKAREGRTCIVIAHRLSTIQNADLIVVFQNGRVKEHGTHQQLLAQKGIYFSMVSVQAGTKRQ

## COc1cc(O)c2c(c1)CCOC2=O [Compound 14]
A549 cells
  IC50: > 100 µM
HCT-15 cells
  IC50: > 100 µM
BCRP
  Inhibition of BCRP (in words): did not inhibit BCRP
P-gp; different concentrations, normalized to PSC833
  Relative inhibition of P-gp, span over the tested concentrations: up to 10%
MCF-7/MX cells
  IC50: > 100 µM
H69AR cells
  IC50: > 100 µM

## CCCCCC1Cc2cc(OC)cc(OC)c2C(=O)O1 (stereo not drawn) [Compound 16a]
A549 cells; A549 cells
  fold lower IC50 value than compound 16: about 1.5 fold
A549 cells
  IC50: 53.6 ± 5.6 µM
HCT-15 cells
  IC50: > 100 µM
BCRP; human, BCRP-expressing MCF-7/MX cells, probe Hoechst 33342, different concentrations, normalized to Ko143, read-out: Relative inhibition of BCRP, span over the tested concentrations
  inhibition at 3 h: 2.3 to 14.9%
P-gp; human, P-gp-expressing HCT-15 cells, probe calcein-AM (0.5 μM), 20 μM, normalized to 2.5 μM PSC833 (100%) and DMSO (0%), read-out: Relative inhibition of P-gp
  inhibition at 20 μM: > 20%
MCF-7/MX cells
  IC50: 10.6 ± 0.9 µM
H69AR cells
  IC50: > 100 µM

## COc1cc(O)c2c(c1)C[C@H](C)OC2=O [Angelicoin B (4), angelicoin B]
A549 cells
  IC50: > 100 µM
HCT-15 cells
  IC50: > 100 µM
BCRP
  Inhibition of BCRP (in words): no inhibitory activity could be observed
P-gp
  Inhibition of P-gp (in words): did not differ significantly from those of derivative 14
MCF-7/MX cells
  IC50: > 100 µM
H69AR cells
  IC50: > 100 µM

## CCCCCC1Cc2cc(OC)cc(O)c2C(=O)O1 (stereo not drawn) [Compound 16]
A549 cells
  IC50: 78.6 ± 2.2 µM
HCT-15 cells
  IC50: > 100 µM
BCRP; human, BCRP-expressing MCF-7/MX cells, probe Hoechst 33342, 10 μM, normalized to 1 μM Ko143 (100%) and DMSO (0%), read-out: Relative inhibition of BCRP
  inhibition at 3 h, 10 μM: 35.3 ± 3.4%
BCRP; human, BCRP-expressing MCF-7/MX cells, probe Hoechst 33342, 50 μM, normalized to 1 μM Ko143 (100%) and DMSO (0%), read-out: Relative inhibition of BCRP
  inhibition at 3 h, 50 μM: 89.1 ± 4.6%
P-gp; human, P-gp-expressing HCT-15 cells, probe calcein-AM (0.5 μM), 10 μM, normalized to 2.5 μM PSC833 (100%) and DMSO (0%), read-out: Relative inhibition of P-gp
  inhibition at 10 μM: 36.3 ± 5.3%
P-gp; human, P-gp-expressing HCT-15 cells, probe calcein-AM (0.5 μM), 50 μM, normalized to 2.5 μM PSC833 (100%) and DMSO (0%), read-out: Relative inhibition of P-gp
  inhibition at 50 μM: 81.2 ± 2.7%
MCF-7/MX cells
  IC50: > 100 µM
H69AR cells
  IC50: 88.5 ± 4.6 µM
